Source: US8608842B2, “Infrared absorbing composition, infrared absorbing ink, recorded article, image recording method, and image detecting method” (FUJIFILM Corporation, priority 2010, dated 2013)

Assays:
Format in all cases: physicochemical
[1] = Solubility of IR coloring material in toluene at 25° C.; conditions: toluene, 25° C.
Procedure: Specifics are as follows.
First, a tetrahydrofuran (THF) solution prepared by adding the IR coloring material to TI-IF is measured by a spectrophotometer and a calibration curve is constructed. Next, a liquid is prepared by adding the IR coloring material to toluene to the level that there is a part of the coloring material left undissolved. The resulting liquid is subjected to ultrasonication for 10 minutes while being maintained at 25° C., and allowed to stand overnight at 25° C. The THF solution obtained after the standing is filtered using a 0.2 μm filter. The filtrate is diluted so that it falls within the linear range of the calibration curve, the absorbance is measured, and quantification is made using the calibration curve.
The solubility shown in Table 1 was measured according to the method described below. Specifics are as follows.
First, the THF solution prepared by adding the IR coloring material to tetrahydrofuran (THF) was measured by a spectrophotometer, and the calibration curve was established. Next, a liquid was prepared by adding the IR coloring material to toluene to the level that there is a part of coloring material left undissolved. The resulting liquid was subjected to ultrasonication for 10 minutes while being kept at 25° C., and allowed to stand overnight at 25° C. The THF solution obtained after the standing was filtered using a 0.2 μm filter. The filtrate was diluted so that it falls within the linear range of the calibration curve, and the absorbance was measured. Based on the measured value, the solubility was quantified using the calibration curve.

[2] = Bar code pattern reading (PCS) of printed article before and after xenon light irradiation (light resistance); conditions: xenon light of 70,000 lux, 200 hours
Procedure: By mixing the components of the composition shown below, the infrared absorbing printing ink (1) was prepared.
By using each of the infrared absorbing printing ink obtained above, a bar code pattern was formed on a regular paper (trade name: MP-120, manufactured by PLUS Corporation), i.e., a base paper, by Gravure printing.
Subsequently, on the formed bar code pattern, another bar code pattern was additionally formed by using the infrared absorbing ink (2) having the composition shown below.
Next, on top of the bar code patterns formed by disposing two layers, three kinds of process inks having infrared transmittance (FDOL Yellow, FDOL Magenta, and FDOL Cyan, manufactured by TOYO INK MFG. CO., LTD. (trade names, manufactured by TOYO INK MFG. CO., LTD.) were further applied by Gravure printing to form a colored layer made of three visible colors (cyan, magenta, and yellow). As a result, a printed article having a bar code pattern disposed inside the matter was produced.
Two kinds of semiconductor laser beam having wavelengths of 830 nm and 905 nm respectively were irradiated onto the thus obtained printed article, and the detection was made by using a filter which cuts off the emission light having wavelength of 950 nm or less. As a result, it was possible to detect the pattern formed by the infrared absorbing ink.
Subsequently, xenon light of 70,000 lux was irradiated continuously for 200 hours onto the printed article by using a xenon lamp. After that, the reading state of the bar code pattern after the irradiation was evaluated. For the evaluation, PCS (print•contrast•signal) of 0.6 or more was evaluated as “good,” and PCS (print•contrast•signal) of less than 0.6 was evaluated as “bad.” The evaluation results are shown in Table 2 below.
The printed article was prepared in the same manner as Example 1 except that the solvent (a mixture solvent of toluene and methyl isobutyl ketone) in the composition of the infrared absorbing ink (1) and (2) is replaced with n-octane (SP value: 7.6), butyl acetate (SP value: 8.5), or isopropyl alcohol (IPA; SP values: 11.5), and evaluated.
The comparative printed article was prepared in the same manner as Example 1 except that the solvent (a mixture solvent of toluene and methyl isobutyl ketone) in the composition of the infrared absorbing ink (1) and (2) is replaced with n-pentane (SP value: 7.0; Example 2) or ethanol (SP value: 12.7; Example 3), and evaluated.

[3] = Ultraviolet curable ink of Example 4: reflected light of mark for copy protection, before and after xenon irradiation; conditions: xenon light of 70,000 lux, 72 hours; variation compared to the value before irradiation
Procedure: By mixing the components of the composition shown below, an ultraviolet curable ink having an infrared absorbing property was prepared.
By using the ultraviolet curable ink thus obtained, a mark for copy protection was printed on the same base paper as that used in Example 1 by Gravure printing. On top of the printed mark for copy protection, each of the three kinds of a process ink (FDOL Yellow, FDOL Magenta, and FDOL Cyan, trade names, manufactured by TOYO INK MFG. CO., LTD.) was applied as a layer by Gravure printing, or a mixture ink in which the three kinds of a process ink are mixed was applied as a layer by Gravure printing to hide the mark for copy protection, thus obtaining a printed article.
The mark for copy protection that is hidden by the process ink was irradiated with infrared light using a linear sensor (trade name: TCD1500C, manufactured by Toshiba) in which the infrared cut-off filter of linear sensor was replaced with an infrared transmitting filter (trade name: IR83, manufactured by Hoya) as a detection device, and the reflected light was detected simultaneously.
The reflection light intensity in the area of the mark for copy protection at the time of detecting the mark was divided by the reflection light intensity of the area outside the mark for copy protection. The resulting value of the comparative infrared absorbing agent A was set to 1, and a ratio of the resulting value with respect to the resulting value of the comparative infrared absorbing agent A was calculated for each compound.
In addition, the obtained printed article was irradiated continuously with xenon light of 70,000 lux for 72 hours by using a Xenon lamp. After the irradiation, similar to above, the reflection light intensity of the area of the mark for copy protection was divided by the reflection light intensity of the area outside the mark for copy protection, and the variation ratio [%] compared to the value before the irradiation was calculated to use it as an index for evaluation of light resistance.

[4] = Example 2, ink solvent n-pentane (SP value: 7.0)
[5] = Example 3, ink solvent ethanol (SP value: 12.7)
[6] = ink solvent IPA (SP value: 11.5)
[7] = ink solvent butyl acetate (SP value: 8.5)
[8] = ink solvent n-octane (SP value: 7.6)
[9] = ink solvent toluene/methyl isobutyl ketone = 70/30

For `Nc1ccccc1Sc1c2c(c(Sc3ccccc3N)c3c1C1=Nc4c5c(Sc6ccccc6N)c6c(c(Sc7ccccc7N)c5c5[n]4[Cu][n]4c(c7c(Sc8ccccc8N)c8c(c(Sc9ccccc9N)c7c4=NC4=NC(=N5)c5c(Sc7ccccc7N)c7c(c(Sc9ccccc9N)c54)NC4C=CC=CC4S7)SC4C=CC=CC4N8)=NC3=N1)NC1C=CC=CC1S6)SC1C=CC=CC1N2` (stereo not shown) [Compound 69], the “Solubility [mg/ml] Solvent: toluene” value [1] was 12 mg/mL, the Reading after irradiation [2, 4] was “Bad (PCS (print•contrast•signal) of less than 0.6 was evaluated as “bad.”)” and the Reading after irradiation [2, 5] was “Bad (PCS (print•contrast•signal) of less than 0.6 was evaluated as “bad.”)”. The Reading after irradiation [2, 6] was “Good (PCS (print•contrast•signal) of 0.6 or more was evaluated as “good,”)”, the Reading after irradiation [2, 7] was “Good (PCS (print•contrast•signal) of 0.6 or more was evaluated as “good,”)” and the Reading after irradiation [2, 8] was “Good (PCS (print•contrast•signal) of 0.6 or more was evaluated as “good,”)”. The Reading after irradiation [2, 9] was “Good (PCS (print•contrast•signal) of 0.6 or more was evaluated as “good,”)” and the “Variation amount after irradiation [%]” value [3] was 4%.

In the case of `Nc1ccccc1Sc1c2c(c(Sc3ccccc3N)c3c1C1=Nc4c5c(Sc6ccccc6N)c6c(c(Sc7ccccc7N)c5c5[n]4[V](=[O])[n]4c(c7c(Sc8ccccc8N)c8c(c(Sc9ccccc9N)c7c4=NC4=NC(=N5)c5c(Sc7ccccc7N)c7c(c(Sc9ccccc9N)c54)NC4C=CC=CC4S7)SC4C=CC=CC4N8)=NC3=N1)NC1C=CC=CC1S6)SC1C=CC=CC1N2` (stereo not shown) [Compound 71], the “Solubility [mg/ml] Solvent: toluene” value [1] is reported as 16 mg/mL, the Reading after irradiation [2, 4] is reported as “Bad (PCS (print•contrast•signal) of less than 0.6 was evaluated as “bad.”)” and the Reading after irradiation [2, 5] is reported as “Bad (PCS (print•contrast•signal) of less than 0.6 was evaluated as “bad.”)”. The Reading after irradiation [2, 6] was “Good (PCS (print•contrast•signal) of 0.6 or more was evaluated as “good,”)”, the Reading after irradiation [2, 7] was “Good (PCS (print•contrast•signal) of 0.6 or more was evaluated as “good,”)” and the Reading after irradiation [2, 8] was “Good (PCS (print•contrast•signal) of 0.6 or more was evaluated as “good,”)”. The Reading after irradiation [2, 9] was “Good (PCS (print•contrast•signal) of 0.6 or more was evaluated as “good,”)” and the “Variation amount after irradiation [%]” value [3] was 3%.

In the case of `CCCCCCCCN1/C(=C/C=C/C=C/C=C/C2=[N+](CCCCCCCC)c3ccc4ccccc4c3C2(C)C)C(C)(C)c2c1ccc1ccccc21.Cc1ccc(S(=O)(=O)[O-])cc1` [reference compound], the “Solubility [mg/ml] Solvent: toluene” value [1] is reported as 43 mg/mL, the Reading after irradiation [2, 9] is reported as “Bad (PCS (print•contrast•signal) of less than 0.6 was evaluated as “bad.”)” and the “Variation amount after irradiation [%]” value [3] is reported as 21%.

For “N,N,N′,N′-tetrakis(p-di-n-butylaminophenyl)-p-phenylene diaminium perchlorate salt [reference compound]”, the “Solubility [mg/ml] Solvent: toluene” value [1] was 32 mg/mL, the Reading after irradiation [2, 9] was “Bad (PCS (print•contrast•signal) of less than 0.6 was evaluated as “bad.”)” and the “Variation amount after irradiation [%]” value [3] was 16%.
